What was measured:
[1] = test system: STAT5 phosphorylation in lymphocytes; experiment: STAT5 phosphorylation in lymphocytes by flow cytometry after administration in mice; format: in vivo
From the text: Conventional approaches, such as those involving radiolabeling a compound, administering it in vivo, and determining its clearance, may be used to determine whether a compound proposed to be a long-acting IL-2Rβ biased agonist is “long-acting”. For the purposes herein, the long-acting nature of an IL-2Rβ biased agonist is typically determined using flow cytometry to measure STAT5 phosphorylation in lymphocytes at various time points after administration of the agonist to be evaluated in mice.

[2] = test system: B16F10 mouse melanoma tumors; experiment: Immune cells in tumor microenvironment by flow cytometry, subcutaneous B16F10 melanoma; format: in vivo, mice

Substance: aldesleukin: clinically available IL-2 (aldesleukin), unmodified recombinant IL-2
- time by which STAT5 phosphorylation signal is lost [1]: around 24 hours
- activated natural killer (NK) cells ([2]; 5 and 7 days after treatment initiation): increased
- ratio of CD8/Treg in the tumor ([2]; by day 7, single dose RSLAIL-2 or 5 doses aldesleukin): 18
- total and memory CD8 cells as percentage of tumor-infiltrating lymphocytes ([2]; relative to vehicle): increased as a percentage of tumor-infiltrating lymphocytes; however, these effects were transient
- percentage of Tregs (FoxP3+ subset of CD4 cells) in tumor ([2]; single dose RSLAIL-2 or 5 doses aldesleukin): modest achieving significance on day 5
